According to ChEMBL document CHEMBL1155325, “Design and synthesis of (2R,3S)-iodoreboxetine analogues for SPECT imaging of the noradrenaline transporter” (Bioorg Med Chem Lett, 2009):
pKi: −log10 of the molar value.

Assays:
Assay type in all cases: tissue-based
Transporter = Transporter (Rattus norvegicus, UniProt Q63380); test: Displacement of [3H]nisoxetine from NAT in Sprague-Dawley rat brain after 4 hrs by liquid scintillation analysis
[1] = target: Sodium-dependent dopamine transporter (Rattus norvegicus, UniProt P23977); test: Displacement of [3H]WIN-35428 from DAT in Sprague-Dawley rat brain after 2 hrs by liquid scintillation analysis
[2] = target: Sodium-dependent serotonin transporter (Rattus norvegicus, UniProt P31652); test: Displacement of [3H]citalopram from SERT in Sprague-Dawley rat brain after 2 hrs by liquid scintillation analysis
Chain of Sodium-dependent serotonin transporter (P31652 whole entry): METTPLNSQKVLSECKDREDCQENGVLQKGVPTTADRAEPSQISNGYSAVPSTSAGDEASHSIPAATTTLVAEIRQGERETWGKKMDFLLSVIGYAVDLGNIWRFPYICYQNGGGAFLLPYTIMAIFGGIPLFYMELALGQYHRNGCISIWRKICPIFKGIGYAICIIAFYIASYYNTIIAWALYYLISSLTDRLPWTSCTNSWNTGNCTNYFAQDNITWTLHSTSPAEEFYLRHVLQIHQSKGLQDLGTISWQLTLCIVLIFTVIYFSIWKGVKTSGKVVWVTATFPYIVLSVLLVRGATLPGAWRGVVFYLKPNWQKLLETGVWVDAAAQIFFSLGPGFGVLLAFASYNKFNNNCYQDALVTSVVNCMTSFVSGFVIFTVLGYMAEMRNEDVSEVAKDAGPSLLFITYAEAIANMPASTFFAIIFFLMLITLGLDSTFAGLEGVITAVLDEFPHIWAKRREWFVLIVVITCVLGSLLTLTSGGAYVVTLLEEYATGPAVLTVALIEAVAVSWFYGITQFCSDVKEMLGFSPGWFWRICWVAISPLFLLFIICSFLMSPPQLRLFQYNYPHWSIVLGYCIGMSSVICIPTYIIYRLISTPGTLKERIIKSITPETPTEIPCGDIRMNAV

Chain of Sodium-dependent dopamine transporter (P23977 whole entry): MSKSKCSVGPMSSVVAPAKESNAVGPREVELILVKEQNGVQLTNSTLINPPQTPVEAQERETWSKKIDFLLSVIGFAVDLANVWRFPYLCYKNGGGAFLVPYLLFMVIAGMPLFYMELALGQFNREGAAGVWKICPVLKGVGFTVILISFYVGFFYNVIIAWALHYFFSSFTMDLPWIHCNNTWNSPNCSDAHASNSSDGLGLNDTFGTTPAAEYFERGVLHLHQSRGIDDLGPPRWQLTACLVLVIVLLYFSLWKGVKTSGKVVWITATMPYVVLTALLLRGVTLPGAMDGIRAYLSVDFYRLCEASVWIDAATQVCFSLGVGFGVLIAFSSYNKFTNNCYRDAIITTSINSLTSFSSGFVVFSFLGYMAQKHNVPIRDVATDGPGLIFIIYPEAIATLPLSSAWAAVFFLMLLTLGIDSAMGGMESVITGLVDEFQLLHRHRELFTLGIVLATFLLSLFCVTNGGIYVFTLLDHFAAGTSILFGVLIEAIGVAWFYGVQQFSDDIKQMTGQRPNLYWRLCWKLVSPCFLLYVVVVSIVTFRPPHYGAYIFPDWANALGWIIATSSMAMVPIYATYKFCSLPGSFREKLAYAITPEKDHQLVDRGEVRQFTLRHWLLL
Chain of Transporter (Q63380 whole entry): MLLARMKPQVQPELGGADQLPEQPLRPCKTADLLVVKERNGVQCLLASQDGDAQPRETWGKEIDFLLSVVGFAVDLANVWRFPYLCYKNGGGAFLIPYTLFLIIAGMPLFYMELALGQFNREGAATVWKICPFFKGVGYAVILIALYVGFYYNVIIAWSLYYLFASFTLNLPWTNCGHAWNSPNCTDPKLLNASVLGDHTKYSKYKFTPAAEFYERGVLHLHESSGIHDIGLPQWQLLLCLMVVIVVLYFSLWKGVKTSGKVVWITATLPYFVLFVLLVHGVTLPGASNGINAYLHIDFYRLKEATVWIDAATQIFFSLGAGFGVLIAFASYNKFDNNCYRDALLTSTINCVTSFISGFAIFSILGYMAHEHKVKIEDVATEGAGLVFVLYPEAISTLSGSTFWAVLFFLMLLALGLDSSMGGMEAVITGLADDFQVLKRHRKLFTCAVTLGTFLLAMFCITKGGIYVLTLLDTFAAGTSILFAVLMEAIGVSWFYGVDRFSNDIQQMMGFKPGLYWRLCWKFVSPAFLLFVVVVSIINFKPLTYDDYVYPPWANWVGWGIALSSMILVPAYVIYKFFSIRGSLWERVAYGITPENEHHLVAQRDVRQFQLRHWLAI

| Structure (SMILES) | pKi (Transporter) | pKi [1] | pKi [2] |
| --- | --- | --- | --- |
| CCOc1ccccc1O[C@@H](c1ccc(I)cc1)[C@H]1CNCCO1 | 7.24 | – | – |
| Ic1ccc(O[C@@H](c2ccccc2)[C@H]2CNCCO2)cc1 | 5.96 | 5.68 | 7.46 |
| Ic1cccc(O[C@@H](c2ccccc2)[C@H]2CNCCO2)c1 | 5.77 | 5.72 | 6.81 |

These reach a higher pKi (Transporter). Values come first.

| pKi (Transporter) | pKi [1] | pKi [2] | Structure (SMILES) |
| --- | --- | --- | --- |
| 7.27 | – | – | CCOc1ccccc1O[C@@H](c1ccc(I)cc1)[C@@H]1CNCCO1 |
| 9.08 | – | – | Ic1ccccc1O[C@@H](c1ccccc1)[C@@H]1CNCCO1 |
| 8.08 | 6.28 | 7.29 | Ic1ccccc1O[C@@H](c1ccccc1)[C@H]1CNCCO1 |
